{
  "source": "paper PMC2788677",
  "about": "(Journal of medicinal chemistry, 2009)",
  "key": {"MOR [1]": {"test_system": "MOR", "settings": "cited from earlier work"}, "MOR [2]": {"test_system": "MOR", "assay": "Radioligand binding assay, CHO cells stably expressing MOR, [3H]DAMGO", "settings": "relative to dermorphin"}},
  "data": [
    {"substance": "Dermorphin", "values": [
      {"measurement": "higher affinity than morphine for MOR", "setting": "MOR [1]", "result": 100, "unit": "fold"},
      {"measurement": "Rel. MOR affinity", "setting": "MOR [2]", "result": 1.0}
    ]}
  ]
}
